Patent US9658208B2, “Methods and G proteins for screening and identifying ligands of G protein-coupled receptors” (Fred Hutchinson Cancer Research Center, priority 2011, dated 2017)

System: odorant receptor (OR) that recognizes vanillin and eugenol (Rho20-eugenol receptor)
Assay: CRE-SEAP reporter gene assay, Gαs-coupled odorant receptor
Format: cell-based
Details: HEK-293 cells, 500 uM eugenol, 48 hours
From the text: A high throughput screening assay was investigated for Gαs-coupled GPCRs based on the CRE-SEAP reporter gene construct, in which five tandem cAMP response elements […] lie upstream of a gene encoding secreted alkaline phosphatase (SEAP) (Durocher et al., Anal Biochem 284: 316-326 (2000)). To ensure the general utility of the CRE-SEAP reporter gene construct for the detection of Gαs-coupled GPCR activation, HEK-293 cells were cotransfected with the CRE-SEAP construct together with expression vectors encoding either a β2-adrenergic receptor or an odorant receptor (OR) that recognizes vanillin and eugenol. Both receptors are GPCRs that couple to Gαs subunits. The HEK-293 cells expressing the β2-adrenergic receptor were grown for 48 hours in the presence or absence of 10 uM isoproterenol. The HEK-293 cells expressing the OR were grown for 48 hours in the presence of 500 uM eugenol. After growing in the presence of the ligands, the cells were assayed for SEAP activity using a fluorescent alkaline phosphatase substrate and a fluorescence plate reader. […]
Following transfection, the cells were maintained for 48 hours in 200 ul serum free media containing either 10 uM isoproterenol (Sigma) or 500 uM eugenol (Sigma). […] Fluorescence was then measured using a CytoFluor 4000 multi well plate reader (Applied Biosystems).

SMILES: C=CCc1ccc(O)c(OC)c1 [eugenol]
- SEAP activity: increase in SEAP activity
